The target of one test is FAK kinase (Homo sapiens, UniProt Q05397). Put plainly: FAK kinase activity inhibition assay, method A (HTRF) and method B (Lantha screen). It counts as biochemical. The procedure: The HTRF method was used to evaluate the inhibitory activity of the compounds against FAK kinase. […]. The reaction conditions were: FAK kinase at 0.1 ng/µL; ATP 10 µM; substrate concentration 1 µM. Compounds were serially diluted in DMSO and shaken on a shaker for 20 minutes. Prepare 2× kinase using 1× reaction buffer. Transfer 25 nL compound to a 384-well plate using Echo 655. Add 2.5 µL kinase per well. Seal the plate with sealing film, centrifuge at 1000 rpm for 60 seconds, and incubate at 25°C for 12 hours. Prepare 2× ATP/substrate mix using 1× enzyme reaction buffer and add 2.5 µL 2× ATP/substrate mix per well. Seal the plate with sealing film, centrifuge at 1000 rpm for 60 seconds, and incubate at 25°C for 50 minutes. Prepare 2×XL665 & antibody solution using HTRF detection buffer, and add 5 µL per well. Incubate at 25°C for 60 minutes. Read fluorescence at 620 nm (Cryptate) and 665 nm (XL665). Calculate the ratio per well (Ratio_665/620 nm). % Inhibition = 100% - [(Compound Ratio - Positive Control Ratio)/ (Negative Control Ratio - Positive Control Ratio)] × 100%. IC50 values (half-maximal inhibitory concentration) were calculated by nonlinear regression using GraphPad Prism 7.0. Y = Bottom + (Top - Bottom)/ (1 + 10^ ((LogIC50 - X) × Hill Slope)), where X is the log of compound concentration and Y is the % inhibition.
FAK kinase, sequence (Q05397 whole entry): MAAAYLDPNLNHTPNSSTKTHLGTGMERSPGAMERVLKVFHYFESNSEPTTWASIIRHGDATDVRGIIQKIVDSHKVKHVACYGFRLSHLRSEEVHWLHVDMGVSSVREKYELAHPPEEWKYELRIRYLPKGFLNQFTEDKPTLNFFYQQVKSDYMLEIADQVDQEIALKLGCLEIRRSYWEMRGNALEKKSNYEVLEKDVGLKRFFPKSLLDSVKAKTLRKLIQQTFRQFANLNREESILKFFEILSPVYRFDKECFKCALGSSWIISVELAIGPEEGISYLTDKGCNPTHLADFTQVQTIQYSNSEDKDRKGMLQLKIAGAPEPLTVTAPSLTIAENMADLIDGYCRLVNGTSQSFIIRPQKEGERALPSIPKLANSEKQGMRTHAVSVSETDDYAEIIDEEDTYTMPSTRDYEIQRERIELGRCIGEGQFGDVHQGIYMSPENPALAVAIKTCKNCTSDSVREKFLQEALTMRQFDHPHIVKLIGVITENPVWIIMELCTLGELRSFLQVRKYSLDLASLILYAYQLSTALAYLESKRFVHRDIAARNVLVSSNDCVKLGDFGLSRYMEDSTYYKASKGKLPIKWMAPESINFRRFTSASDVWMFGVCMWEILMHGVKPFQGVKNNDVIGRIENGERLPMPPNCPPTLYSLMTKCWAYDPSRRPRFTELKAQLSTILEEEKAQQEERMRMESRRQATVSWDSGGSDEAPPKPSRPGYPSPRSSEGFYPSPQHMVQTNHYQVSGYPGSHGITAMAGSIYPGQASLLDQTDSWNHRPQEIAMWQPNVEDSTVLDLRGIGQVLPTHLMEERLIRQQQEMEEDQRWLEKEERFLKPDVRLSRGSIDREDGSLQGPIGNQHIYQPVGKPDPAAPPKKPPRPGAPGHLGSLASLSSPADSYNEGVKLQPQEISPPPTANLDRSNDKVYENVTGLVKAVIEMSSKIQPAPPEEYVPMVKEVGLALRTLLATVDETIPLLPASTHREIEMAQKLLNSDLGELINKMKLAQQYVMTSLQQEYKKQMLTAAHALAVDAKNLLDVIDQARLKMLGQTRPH
The Lantha screen assay was used to evaluate the FAK kinase inhibitory activity. Compounds were dissolved in 100% DMSO at 10 mM stock concentration. Prepare 1× kinase buffer (25 mM HEPES, pH 7.5, 0.01 mM Triton, 0.5 mM EGTA, 0.01% Brij-35). Dilute compounds in a gradient, and transfer 5 µL compound into the reaction plate. Prepare 2× kinase solution with 1× Kinase buffer. Add 5 µL kinase solution to compound and positive control wells, and 5 µL 1× Kinase buffer to negative control wells. Mix reaction plate by shaking. Prepare 4× ATP/Fluorescein-polyGT substrate mix with 1× Kinase buffer. Add 2.5 µL substrate solution to initiate the reaction. Shake and incubate at room temperature for 30 minutes. Prepare 2× detection reagent (2 nM antibody, 10 mM EDTA) and add 10 µL per well to stop the reaction. Briefly centrifuge, mix, and incubate for 60 minutes. Read fluorescence at 340 nm excitation and 520 nm/495 nm emission using EnVision. Collect data and calculate 520 nm/495 nm ratio. Calculate the inhibition percentage using the formula: % Inhibition = (Max - Sample Ratio)/(Max - Min) × 100, where min is the mean of negative control wells (no enzyme activity), and max is the mean of positive control wells (DMSO-inhibited conversion rate).Use XLFit Excel add-in version 5.4.0.8 to determine the IC50 values of each compound against the enzyme activity: Y = Bottom + (Top - Bottom)/(1 + (IC50/X)^HillSlope).
(Time-resolved FRET reads energy transfer from a long-lived donor to a nearby acceptor.)

The target of the next test is T1, FLT3 (Homo sapiens, UniProt P36888).
T1 sequence (P36888 27-993): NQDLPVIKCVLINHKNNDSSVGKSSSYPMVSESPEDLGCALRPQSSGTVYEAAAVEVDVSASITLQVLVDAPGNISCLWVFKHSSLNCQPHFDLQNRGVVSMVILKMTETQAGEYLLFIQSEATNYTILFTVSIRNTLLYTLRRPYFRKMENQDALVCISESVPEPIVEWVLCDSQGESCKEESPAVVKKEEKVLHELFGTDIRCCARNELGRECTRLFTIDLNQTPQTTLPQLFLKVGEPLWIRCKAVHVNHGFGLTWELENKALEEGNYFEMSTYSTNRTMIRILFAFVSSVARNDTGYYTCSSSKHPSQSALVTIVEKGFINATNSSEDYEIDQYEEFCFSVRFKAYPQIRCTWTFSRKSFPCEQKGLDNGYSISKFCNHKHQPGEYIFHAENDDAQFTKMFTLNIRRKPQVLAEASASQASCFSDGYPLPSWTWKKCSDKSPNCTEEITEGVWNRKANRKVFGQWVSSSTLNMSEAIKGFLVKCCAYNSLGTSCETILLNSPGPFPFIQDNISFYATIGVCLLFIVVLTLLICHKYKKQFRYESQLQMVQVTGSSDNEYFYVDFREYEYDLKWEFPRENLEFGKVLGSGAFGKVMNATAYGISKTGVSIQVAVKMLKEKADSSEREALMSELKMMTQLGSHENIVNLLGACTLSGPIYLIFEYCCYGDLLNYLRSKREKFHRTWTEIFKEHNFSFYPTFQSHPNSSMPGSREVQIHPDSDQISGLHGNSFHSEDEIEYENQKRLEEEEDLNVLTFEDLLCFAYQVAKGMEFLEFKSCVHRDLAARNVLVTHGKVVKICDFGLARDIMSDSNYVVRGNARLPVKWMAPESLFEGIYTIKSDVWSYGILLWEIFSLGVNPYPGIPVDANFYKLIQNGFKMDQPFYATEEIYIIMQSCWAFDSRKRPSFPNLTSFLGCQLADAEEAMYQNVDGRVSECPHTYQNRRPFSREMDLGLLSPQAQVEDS
Briefly: FLT3 kinase activity inhibition assay (Mobility shift assay). It counts as biochemical. The method, then:
Testing compound inhibitory activity against FLT3 and AXL kinases using Mobility shift assay. Compounds were dissolved in 100% DMSO to prepare 10 mM stock solutions. Prepare 1× Kinase Buffer. Test compounds were serially diluted in 5-fold gradients, and 250 nL of 100× final concentration compounds were transferred to destination plate 3573 using an Echo 550 liquid handler. A 2.5× final concentration kinase solution was prepared in 1× Kinase Buffer. Then, 10 µL of the 2.5× kinase solution was added to both compound wells and positive control wells, while 10 µL of 1× Kinase Buffer was added to negative control wells. The plate was centrifuged at 1000 rpm for 30 seconds, mixed by orbital shaking, and incubated at room temperature for 10 minutes. A 5/3× final concentration mixture of ATP and Kinase Substrate 25 was prepared in 1× Kinase Buffer. The reaction was initiated by adding 15 µL of the 5/3× ATP/substrate mixture. The 384-well plate was centrifuged at 1000 rpm for 30 seconds, mixed by shaking, and incubated at room temperature for 120 minutes. The kinase reaction was terminated by adding 30 µL stop solution, followed by centrifugation at 1000 rpm for 30 seconds and mixing. Conversion rates were measured using a Caliper EZ Reader. %Inhibition = (Conversion%_max - Conversion%_sample)/(Conversion%_max - Conversion%_min) × 100. Where: Conversion%_sample: Conversion rate reading of test samples; Conversion%_min: Mean value of negative control wells (representing conversion rate without enzyme activity); Conversion%_max: Mean value of positive control wells (representing conversion rate without compound inhibition). Dose-response curves were plotted with log(concentration) as the X-axis and percentage inhibition as the Y-axis. Curve fitting was performed using GraphPad Prism 5 software with the "log(inhibitor) vs. response - Variable slope" model to derive IC50 values for each compound's enzyme inhibitory activity. The fitting formula was: Y = Bottom + (Top - Bottom)/(1 + 10^((LogIC50 - X) × HillSlope)).

Like-named read-outs stand apart in the source and are kept apart here. Some results are limits rather than exact numbers.

The values that follow come from patent EP4653444A1, “FUSED TRICYCLIC COMPOUND AS KINASE INHIBITOR” (Hangzhou Innogate Pharma Co., Ltd., priority 2023, dated 2024).

For the compound `COc1cc2c(cc1Nc1ncc(Cl)c(Nc3ccccc3S(=O)(=O)C(C)C)n1)OC[C@@H]1CN(C3CCOCC3)CCN21` [Compound C1S], the IC50 – broadly, the concentration that inhibits the measured activity by half – is less than 1 nM against FAK kinase and less than 30 nM on FLT3 (Table 3, read-out: FLT3 (IC50)).
For `COc1cc2c(cc1Nc1ncc(Cl)c(Nc3ccccc3S(=O)(=O)C(C)C)n1)OC[C@@H]1CN(C3CCN(C)CC3)CCN21` [Compound C2S], the half-inhibitory concentration (IC50) on FAK kinase was less than 1 nM; at FLT3 it was less than 30 nM.
For `CNC(=O)c1ccccc1Nc1cc(Nc2cc3c(cc2OC)N2CCN(C4CCN(C)CC4)C[C@@H]2CO3)ncc1C(F)(F)F` [Compound D2R] the same measures were less than 1 nM and less than 20 nM.
`CNC(=O)c1ccccc1Nc1cc(Nc2cc3c(cc2OC)N2CCN(C4CCN(C)CC4)C[C@H]2CO3)ncc1C(F)(F)F` [Compound D2S]: the IC50 against FAK kinase was less than 0.5 nM; at FLT3 (Table 4, read-out: FLT3 (IC50)) it was less than 50 nM.
`CNC(=O)c1ccccc1Nc1cc(Nc2cc3c(cc2OC)N2CCN(C4CN(C)C4)C[C@H]2CO3)ncc1C(F)(F)F` [Compound D4S]: the IC50 against FAK kinase is less than 1 nM; at FLT3 (Table 4, read-out: FLT3 (IC50)) it was less than 70 nM.
